Key:
[1] = kidney imaging in dogs with a gamma radiation detecting camera; assay type: in vivo; details: one-half hour after injection
Description: Next, 9 ml. of saline were added to the glass vial (held under N2 atmosphere). The pH of the vial contents was raised to pH 7.4, using 1 molar NaOH. The solution was transferred to a pharmaceutical vial, capped and sealed. Using a needle inserted through the rubber seal septum, the vial was evacuated to 5 mm. Hg pressure and purged with nitrogen to 1 atmospheric pressure. The vial contents were ready for injection and kidney imaging.

[2] = biological distribution of the 99m-Tc complex in mice as a function of time; assay type: in vivo, white female Swiss Webster mice; details: for Percentage of total 99m-Tc in mice, Carcass / Percentage of total 99m-Tc in mice, Gut / Percentage of total 99m-Tc in mice, Kidneys / Percentage of total 99m-Tc in mice, Liver / Percentage of total 99m-Tc in mice, Lungs / Percentage of total 99m-Tc in mice, Pancreas / Percentage of total 99m-Tc in mice, Spleen / Percentage of total 99m-Tc in mice, Stomach / Percentage of total 99m-Tc in mice, Spleen & Pancreas / Percentage of total 99m-Tc in mice, Urine: i.v. tail vein
Description: The mice were injected intravenously via the tail vein, sacrificed after appropriate time periods, then dissected. The isolated organs were assayed for radioactivity using a Packard series 410 A Auto Gamma Spectrometer.
Each data point represents an average value from three mice taken in three separate distribution studies.
The mice were tested and assayed for radioactivity as described in Example 1.

[3] = water/octanol partition coefficient Ln(aw/ao) of the technetium complex; assay type: physicochemical; details: for Partition Coefficient = Ln(aw/ao): 27000 µM
Description: This ratio of distribution is quite easily followed by determining the activity of the respective phases of a two-phase system, in which the complex is added as a water solution to octanol in equal parts. […] (wherein aw is the radioactivity distributed in the aqueous phase and ao is the radioactivity distributed in the organic phase, at a pH in the range between pH 4 and pH 9), after thorough agitation to admix the phases followed by standing to accomplish complete separation.
The blood is on the mildly alkaline side at pH=7.4, while the urine, etc., is about pH 5 to pH 8.

[4] = in vivo
[5] = mouse kidney distribution of Tc-99m pertechnetate (comparison); assay type: in vivo; details: at any time during a 24 hour period
[6] = localization of technetium activity in a mouse after injection of the complex into the blood stream; assay type: in vivo; details: one hour after injection into the blood stream
Description: One hour after this complex was injected into the blood stream of a mouse, about 24 percent of technetium activity had localized in its kidneys.

99m-Tc-dimercaptosuccinic acid
kidney images [1]: Good kidney images | Percentage of total 99m-Tc in mice, Carcass ([2]; 0 hr): 40.9 Percentage of total 99m-Tc | Percentage of total 99m-Tc in mice, Carcass ([2]; 0.5 hr): 30.4 Percentage of total 99m-Tc | Percentage of total 99m-Tc in mice, Carcass ([2]; 1.0 hr): 26.9 Percentage of total 99m-Tc | Percentage of total 99m-Tc in mice, Carcass ([2]; 2.0 hr): 20.4 Percentage of total 99m-Tc | Percentage of total 99m-Tc in mice, Carcass ([2]; 4.0 hr): 21.3 Percentage of total 99m-Tc | Percentage of total 99m-Tc in mice, Carcass ([2]; 24.0 hr): 8.0 Percentage of total 99m-Tc | Percentage of total 99m-Tc in mice, Gut ([2]; 0 hr): 10.1 Percentage of total 99m-Tc | Percentage of total 99m-Tc in mice, Gut ([2]; 0.5 hr): 6.1 Percentage of total 99m-Tc | Percentage of total 99m-Tc in mice, Gut ([2]; 1.0 hr): 7.0 Percentage of total 99m-Tc | Percentage of total 99m-Tc in mice, Gut ([2]; 2.0 hr): 4.3 Percentage of total 99m-Tc | Percentage of total 99m-Tc in mice, Gut ([2]; 4.0 hr): 3.0 Percentage of total 99m-Tc | Percentage of total 99m-Tc in mice, Gut ([2]; 24.0 hr): 1.7 Percentage of total 99m-Tc | Percentage of total 99m-Tc in mice, Kidneys ([2]; 0 hr): 9.4 Percentage of total 99m-Tc | Percentage of total 99m-Tc in mice, Kidneys ([2]; 0.5 hr): 29.3 Percentage of total 99m-Tc | Percentage of total 99m-Tc in mice, Kidneys ([2]; 1.0 hr): 39.5 Percentage of total 99m-Tc | Percentage of total 99m-Tc in mice, Kidneys ([2]; 2.0 hr): 45.6 Percentage of total 99m-Tc | Percentage of total 99m-Tc in mice, Kidneys ([2]; 4.0 hr): 54.8 Percentage of total 99m-Tc | Percentage of total 99m-Tc in mice, Kidneys ([2]; 24.0 hr): 75.5 Percentage of total 99m-Tc | Percentage of total 99m-Tc in mice, Liver ([2]; 0 hr): 28.6 Percentage of total 99m-Tc | Percentage of total 99m-Tc in mice, Liver ([2]; 0.5 hr): 12.8 Percentage of total 99m-Tc | Percentage of total 99m-Tc in mice, Liver ([2]; 1.0 hr): 9.4 Percentage of total 99m-Tc | Percentage of total 99m-Tc in mice, Liver ([2]; 2.0 hr): 6.8 Percentage of total 99m-Tc | Percentage of total 99m-Tc in mice, Liver ([2]; 4.0 hr): 3.8 Percentage of total 99m-Tc | Percentage of total 99m-Tc in mice, Liver ([2]; 24.0 hr): 2.7 Percentage of total 99m-Tc | Percentage of total 99m-Tc in mice, Lungs ([2]; 0 hr): 7.4 Percentage of total 99m-Tc | Percentage of total 99m-Tc in mice, Lungs ([2]; 0.5 hr): 2.3 Percentage of total 99m-Tc | Percentage of total 99m-Tc in mice, Lungs ([2]; 1.0 hr): 1.7 Percentage of total 99m-Tc | Percentage of total 99m-Tc in mice, Lungs ([2]; 2.0 hr): 0.8 Percentage of total 99m-Tc | Percentage of total 99m-Tc in mice, Lungs ([2]; 4.0 hr): 0.7 Percentage of total 99m-Tc | Percentage of total 99m-Tc in mice, Lungs ([2]; 24.0 hr): 0.0 Percentage of total 99m-Tc | Percentage of total 99m-Tc in mice, Pancreas ([2]; 0 hr): 1.4 Percentage of total 99m-Tc | Percentage of total 99m-Tc in mice, Pancreas ([2]; 0.5 hr): 0.7 Percentage of total 99m-Tc | Percentage of total 99m-Tc in mice, Pancreas ([2]; 1.0 hr): 0.4 Percentage of total 99m-Tc | Percentage of total 99m-Tc in mice, Pancreas ([2]; 2.0 hr): 0.3 Percentage of total 99m-Tc | Percentage of total 99m-Tc in mice, Pancreas ([2]; 4.0 hr): 0.2 Percentage of total 99m-Tc | Percentage of total 99m-Tc in mice, Pancreas ([2]; 24.0 hr): 0.2 Percentage of total 99m-Tc | Percentage of total 99m-Tc in mice, Spleen ([2]; 0 hr): 0.3 Percentage of total 99m-Tc | Percentage of total 99m-Tc in mice, Spleen ([2]; 0.5 hr): 0.4 Percentage of total 99m-Tc | Percentage of total 99m-Tc in mice, Spleen ([2]; 1.0 hr): 0.2 Percentage of total 99m-Tc | Percentage of total 99m-Tc in mice, Spleen ([2]; 2.0 hr): 0.3 Percentage of total 99m-Tc | Percentage of total 99m-Tc in mice, Spleen ([2]; 4.0 hr): 0.1 Percentage of total 99m-Tc | Percentage of total 99m-Tc in mice, Spleen ([2]; 24.0 hr): 0.1 Percentage of total 99m-Tc | Percentage of total 99m-Tc in mice, Stomach ([2]; 0 hr): 1.8 Percentage of total 99m-Tc | Percentage of total 99m-Tc in mice, Stomach ([2]; 0.5 hr): 1.1 Percentage of total 99m-Tc | Percentage of total 99m-Tc in mice, Stomach ([2]; 1.0 hr): 1.2 Percentage of total 99m-Tc | Percentage of total 99m-Tc in mice, Stomach ([2]; 2.0 hr): 0.5 Percentage of total 99m-Tc | Percentage of total 99m-Tc in mice, Stomach ([2]; 4.0 hr): 0.4 Percentage of total 99m-Tc | Percentage of total 99m-Tc in mice, Stomach ([2]; 24.0 hr): 0.4 Percentage of total 99m-Tc | accumulation of activity in the animal's kidneys ([2]; mice, immediately after injection to 24 hour): begins to accumulate in the animal's kidneys immediately after injection of the Tc-DMSA complex and continues to concentrate during a 24 hour period | Partition Coefficient = Ln(aw/ao) ([3]; pH 4): 6.0 | Partition Coefficient = Ln(aw/ao) ([3]; pH 5): 6.8 | Partition Coefficient = Ln(aw/ao) ([3]; pH 6): 7.6 | Partition Coefficient = Ln(aw/ao) ([3]; pH 7): 8.5 | Partition Coefficient = Ln(aw/ao) ([3]; pH 8): 8.2 | Partition Coefficient = Ln(aw/ao) ([3]; pH 9): 8.1

99m-Tc-thioglucose
Percentage of total 99m-Tc in mice, Carcass ([2]; 0 hr): 53.1 Percentage of total 99m-Tc | Percentage of total 99m-Tc in mice, Carcass ([2]; 0.5 hr): 1.5 Percentage of total 99m-Tc | Percentage of total 99m-Tc in mice, Carcass ([2]; 1.0 hr): 1.4 Percentage of total 99m-Tc | Percentage of total 99m-Tc in mice, Gut ([2]; 0 hr): 13.3 Percentage of total 99m-Tc | Percentage of total 99m-Tc in mice, Gut ([2]; 0.5 hr): 5.5 Percentage of total 99m-Tc | Percentage of total 99m-Tc in mice, Gut ([2]; 1.0 hr): 1.1 Percentage of total 99m-Tc | Percentage of total 99m-Tc in mice, Kidneys ([2]; 0 hr): 9.0 Percentage of total 99m-Tc | Percentage of total 99m-Tc in mice, Kidneys ([2]; 0.5 hr): 2.8 Percentage of total 99m-Tc | Percentage of total 99m-Tc in mice, Kidneys ([2]; 1.0 hr): 0.4 Percentage of total 99m-Tc | Percentage of total 99m-Tc in mice, Liver ([2]; 0 hr): 18.9 Percentage of total 99m-Tc | Percentage of total 99m-Tc in mice, Liver ([2]; 0.5 hr): 2.1 Percentage of total 99m-Tc | Percentage of total 99m-Tc in mice, Liver ([2]; 1.0 hr): 3.3 Percentage of total 99m-Tc | Percentage of total 99m-Tc in mice, Lungs ([2]; 0 hr): 2.9 Percentage of total 99m-Tc | Percentage of total 99m-Tc in mice, Lungs ([2]; 0.5 hr): 0.3 Percentage of total 99m-Tc | Percentage of total 99m-Tc in mice, Lungs ([2]; 1.0 hr): 0.08 Percentage of total 99m-Tc | Percentage of total 99m-Tc in mice, Spleen & Pancreas ([2]; 0 hr): 2.1 Percentage of total 99m-Tc | Percentage of total 99m-Tc in mice, Spleen & Pancreas ([2]; 0.5 hr): 0.1 Percentage of total 99m-Tc | Percentage of total 99m-Tc in mice, Spleen & Pancreas ([2]; 1 hr): 0.2 Percentage of total 99m-Tc | Percentage of total 99m-Tc in mice, Stomach ([2]; 0 hr): 0.8 Percentage of total 99m-Tc | Percentage of total 99m-Tc in mice, Stomach ([2]; 0.5 hr): 0.8 Percentage of total 99m-Tc | Percentage of total 99m-Tc in mice, Stomach ([2]; 1.0 hr): 0.06 Percentage of total 99m-Tc | Percentage of total 99m-Tc in mice, Urine ([2]; 0 hr): 0.0 Percentage of total 99m-Tc | Percentage of total 99m-Tc in mice, Urine ([2]; 0.5 hr): 89.9 Percentage of total 99m-Tc | Percentage of total 99m-Tc in mice, Urine ([2]; 1 hr): 93.5 Percentage of total 99m-Tc | elimination from the kidneys ([2]; mice, 0-1 hr): eliminated from the kidneys of the mice very rapidly | clearance from kidney tissue [4]: rapidly cleared from kidney tissue

[O]=[99Tc](=[O])(=[O])[O-] [Tc-99m pertechnetate]
maximum kidney concentration of Tc-99m pertechnetate [5]: ≤ 3%

Technetium-3-mercaptopropanoic Acid
Partition Coefficient - Ln(aw/ao) ([3]; pH 4): 2.4 | Partition Coefficient - Ln(aw/ao) ([3]; pH 5): 2.7 | Partition Coefficient - Ln(aw/ao) ([3]; pH 6): 3.1 | Partition Coefficient - Ln(aw/ao) ([3]; pH 7): 3.6 | Partition Coefficient - Ln(aw/ao) ([3]; pH 8): 4.1 | Partition Coefficient - Ln(aw/ao) ([3]; pH 9): 4.7

Technetium-mercaptosuccinic Acid [^99m Tc-mercapto succinic acid]
clearance from kidney tissue [4]: rapidly cleared from kidney tissue

technetium-mercaptoacetic acid
technetium activity found in urine [6]: A large part of the remaining activity | technetium activity localized in kidneys [6]: about 24%

Source: patent US4208398A, “Technetium-labeled complexes, production and use thereof” (priority 1975, dated 1980)
